In patent US20130029928A1 (priority 2010, published 2013):
Like-named read-outs stand apart in the source and are kept apart here.

Experiment: Phase I study CXR1002-001: plasma pharmacokinetics (LC-MS/MS)
Assay type: in vivo, human
Details: human, plasma, oral, person, plasma; for concentration at 24 h: 24 hr (Day 2); for concentration at 168 h: 168 hr (Day 8); for concentration at 336 h: 336 hr (Day 15); for concentration at 360 h: 360 hr (Day 16); for concentration at 504 h: 504 hr (Day 22); for concentration at 672 h: 672 hr (Day 29); for concentration at 696 h: 696 hr (Day 30); for concentration at 840 h: 840 hr (Day 36)
From the text: PK samples, PD (fasting) samples, blood glucose, and blood triglyceride samples, were taken over a 6-week period.
Dose limiting toxicity (DLT) will be based on the toxicity assessments over the first 3-week period of the repeat dosing schedule. PK samples (single blood sample) were taken on the following basis: • Every 6 weeks during the repeat dosing phase • If dosing is interrupted or stopped, samples will be taken at intervals according to patient convenience • PK sampling for safety evaluation may take place at any time, as clinically indicated
Plasma samples were collected after the single 50 mg dose at the following timepoints: Pre-dose, and then 0.25, 0.5, 0.75, 1, 1.5, 2, 3, 4, 6, 24, 48, and 72 hours after administration and then once weekly at weeks 2, 3, 4, 5, and 6 (days 8, 15, 22, 29, and 36). For patients treated with the weekly repeat dose, plasma samples were collected at the following timepoints: Pre-dose and then 2, 3, 4 and 24 hours after administration for a total of 6 weeks. Thereafter a single sample was collected every 6 weeks for monitoring of exposure during long term treatment. Plasma samples were processed at site and stored at −80° C. prior to batch shipment to the analytical laboratory.

[1] = 1000 mg, Patient 040, 1000 mg, read-out: Concentration
[2] = 1200 mg, Patient 033, 1200 mg, read-out: Concentration

SMILES: O=C(O)C(F)(F)C(F)(F)C(F)(F)C(F)(F)C(F)(F)C(F)(F)C(F)(F)F [CXR1002]
- concentration at 4 h [1]: 190 µM
- concentration at 24 h [1]: 148 µM
- concentration at 168 h [1]: 120 µM
- concentration at 170 h [1]: 368 µM
- concentration at 171 h [1]: 343 µM
- concentration at 172 h (1000 mg, Patient 040, 1000 mg, 172 hr, read-out: Concentration): 326 µM
- concentration at 192 h (1000 mg, Patient 040, 1000 mg, 192 hr (Day 9), read-out: Concentration): 272 µM
- concentration at 336 h [1]: 305 µM
- concentration at 338 h [1]: 487 µM
- concentration at 339 h [1]: 427 µM
- concentration at 340 h [1]: 476 µM
- concentration at 360 h [1]: 485 µM
- concentration at 504 h [1]: 353 µM
- concentration at 506 h [1]: 502 µM
- concentration at 507 h (1000 mg, Patient 040, 1000 mg, 507 hr, read-out: Concentration): 554 µM
- concentration at 508 h (1000 mg, Patient 040, 1000 mg, 508 hr, read-out: Concentration): 515 µM
- concentration at 528 h (1000 mg, Patient 040, 1000 mg, 528 hr (Day 23), read-out: Concentration): 525 µM
- concentration at 672 h [1]: 490 µM
- concentration at 674 h [1]: 558 µM
- concentration at 675 h [1]: 533 µM
- concentration at 676 h [1]: 607 µM
- concentration at 696 h [1]: 697 µM
- concentration at 840 h [1]: 574 µM
- concentration at 842 h [1]: 626 µM
- concentration at 843 h (1000 mg, Patient 040, 1000 mg, 843 hr, read-out: Concentration): 748 µM
- concentration at 864 h (1000 mg, Patient 040, 1000 mg, 864 hr (Day 37), read-out: Concentration): 826 µM
- concentration at 0 h (1200 mg, Patient 033, 1200 mg, 0 hr (pre-dose)): 0 nM
- concentration at 2 h (1200 mg, Patient 033, 1200 mg, 2 hr, read-out: Concentration): 441 µM
- concentration at 3 h (1200 mg, Patient 033, 1200 mg, 3 hr, read-out: Concentration): 396 µM
- concentration at 4 h [2]: 374 µM
- concentration at 24 h [2]: 371 µM
- concentration at 168 h [2]: 317 µM
- concentration at 170 h [2]: 735 µM
- concentration at 171 h [2]: 657 µM
- concentration at 172 hr (1200 mg, Patient 033, 1200 mg, 172 hr, read-out: Concentration): 637 µM
- concentration at 192 hr (1200 mg, Patient 033, 1200 mg, 192 hr (Day 9), read-out: Concentration): 591 µM
- concentration at 336 h [2]: 637 µM
- concentration at 338 h [2]: 926 µM
- concentration at 339 h [2]: 841 µM
- concentration at 340 h [2]: 817 µM
- concentration at 360 h [2]: 915 µM
- concentration at 504 h [2]: 713 µM
- concentration at 506 h [2]: 1150 µM
- concentration at 507 hr (1200 mg, Patient 033, 1200 mg, 507 hr, read-out: Concentration): 1060 µM
- concentration at 508 hr (1200 mg, Patient 033, 1200 mg, 508 hr, read-out: Concentration): 1010 µM
- concentration at 672 h [2]: 1020 µM
- concentration at 674 h [2]: 1230 µM
- concentration at 675 h [2]: 1110 µM
- concentration at 676 h [2]: 1100 µM
- concentration at 696 h [2]: 1110 µM
- concentration at 840 h [2]: 1040 µM
- concentration at 842 h [2]: 1110 µM
- concentration at 843 hr (1200 mg, Patient 033, 1200 mg, 843 hr, read-out: Concentration): 1230 µM
- concentration at 844 hr (1200 mg, Patient 033, 1200 mg, 844 hr, read-out: Concentration): 1200 µM
- concentration at 864 hr (1200 mg, Patient 033, 1200 mg, 864 hr (Day 37), read-out: Concentration): 1320 µM
- concentration at 2 hr (1200 mg, Patient 034, 1200 mg, 2 hr, read-out: Concentration): 440 µM
- concentration at 3 hr (1200 mg, Patient 034, 1200 mg, 3 hr, read-out: Concentration): 401 µM
